The values below come from patent US20240018161A1, “MODULATORS OF CYSTIC FIBROSIS TRANSMEMBRANE CONDUCTANCE REGULATOR” (VERTEX PHARMACEUTICALS INCORPORATED, priority 2020, published 2024).

Molecules are shown by their SMILES. pEC50: −log10 of the molar value. Where only a bound is given, the exact number is not on record here.

The experiment deals with CFTR-mediated chloride transport in human intestinal epithelial enteroid cells (Homo sapiens, UniProt P13569). Kind of experiment: Membrane potential dye, Enteroid Assay A. In kind it is cell-based. The note with it: Enteroid Assay A; for pEC50: read-out: Ent. A EC50. A digest of the protocol:
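Membrane potential dye (20 μM methyl oxonol, with 30 μM CaCCinh-A01 and 30 μM Chicago Sky Blue) loaded 25 min at room temperature into ROCK-inhibitor-seeded human enteroid cells. Chloride-free stimulation buffer triggered transport, followed by 15 min fluorescence. % Activity relative to 3 μM/3 μM/300 nM triple-combination control.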

Sequence of CFTR-mediated chloride transport in human intestinal epithelial enteroid cells (P13569 with tags, fused parts or gaps DEL508-508): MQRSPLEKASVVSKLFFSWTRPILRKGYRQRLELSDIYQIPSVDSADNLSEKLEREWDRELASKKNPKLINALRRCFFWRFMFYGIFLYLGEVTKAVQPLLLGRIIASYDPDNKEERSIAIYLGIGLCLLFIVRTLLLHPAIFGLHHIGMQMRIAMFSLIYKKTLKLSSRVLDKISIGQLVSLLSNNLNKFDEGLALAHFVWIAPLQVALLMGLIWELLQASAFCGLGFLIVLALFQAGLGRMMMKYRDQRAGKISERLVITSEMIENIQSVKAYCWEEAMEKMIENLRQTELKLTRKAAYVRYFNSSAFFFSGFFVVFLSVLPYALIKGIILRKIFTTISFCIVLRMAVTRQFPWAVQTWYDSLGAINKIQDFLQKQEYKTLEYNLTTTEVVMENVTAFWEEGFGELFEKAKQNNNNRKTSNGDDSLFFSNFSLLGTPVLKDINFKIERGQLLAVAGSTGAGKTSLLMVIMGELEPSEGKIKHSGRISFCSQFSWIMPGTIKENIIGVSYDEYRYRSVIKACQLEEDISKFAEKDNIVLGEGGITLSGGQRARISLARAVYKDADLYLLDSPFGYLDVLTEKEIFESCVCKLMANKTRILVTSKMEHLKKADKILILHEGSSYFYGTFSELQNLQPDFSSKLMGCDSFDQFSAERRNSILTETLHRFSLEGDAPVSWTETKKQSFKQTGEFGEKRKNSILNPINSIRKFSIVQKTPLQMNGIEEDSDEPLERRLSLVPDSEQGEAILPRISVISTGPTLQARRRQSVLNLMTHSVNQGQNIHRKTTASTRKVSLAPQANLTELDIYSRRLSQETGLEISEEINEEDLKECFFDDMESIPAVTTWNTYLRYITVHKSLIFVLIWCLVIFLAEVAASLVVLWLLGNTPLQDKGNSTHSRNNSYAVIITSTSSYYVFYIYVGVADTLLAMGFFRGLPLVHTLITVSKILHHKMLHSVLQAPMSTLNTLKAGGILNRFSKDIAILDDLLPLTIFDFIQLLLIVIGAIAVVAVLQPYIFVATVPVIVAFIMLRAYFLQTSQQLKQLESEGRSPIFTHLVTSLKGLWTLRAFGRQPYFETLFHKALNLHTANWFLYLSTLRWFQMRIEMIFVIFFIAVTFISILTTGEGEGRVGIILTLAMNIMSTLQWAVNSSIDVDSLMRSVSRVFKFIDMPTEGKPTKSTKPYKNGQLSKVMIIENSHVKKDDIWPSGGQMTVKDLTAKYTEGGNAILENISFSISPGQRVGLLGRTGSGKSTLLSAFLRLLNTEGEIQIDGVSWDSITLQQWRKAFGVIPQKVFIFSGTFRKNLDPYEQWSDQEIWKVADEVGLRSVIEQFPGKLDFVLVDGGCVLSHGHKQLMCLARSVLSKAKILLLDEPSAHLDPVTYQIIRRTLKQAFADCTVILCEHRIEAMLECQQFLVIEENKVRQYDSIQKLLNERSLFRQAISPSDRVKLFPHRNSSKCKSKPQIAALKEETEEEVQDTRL

With `Cc1cccc(C)c1-c1cc2nc(n1)NS(=O)(=O)c1cccc(c1)C(=O)N1C[C@@H](CN(C)C[C@H]1CC(C)C)O2` [Compound 103, (16R,20R)-12-(2,6-Dimethylphenyl)-18-methyl-20-(2-methylpropyl)-15-oxa-8λ^6-thia-1,9,11,18,22-pentaazatetracyclo[14.4.1.13,7.110,14]tricosa-3(23),4,6,10(22),11,13-hexaene-2,8,8-trione], the “Ent. A Max Activity (%)” value is “+++ (+++ is >600%)” and the negative-log EC50 (pEC50) (usually the negative decadic logarithm of the EC50, by convention in mol/L) was more than 6.00.
In the case of `Cc1cccc(C)c1-c1cc2nc(n1)NS(=O)(=O)c1cccc(c1)C(=O)N1C[C@@H](CN(CC(C)(C)C)C[C@H]1CC(C)C)O2` [Compound 104, (16R,20R)-12-(2,6-Dimethylphenyl)-18-(2,2-dimethylpropyl)-20-(2-methylpropyl)-15-oxa-8λ^6-thia-1,9,11,18,22-pentaazatetracyclo[14.4.1.13,7.110,14]tricosa-3(23),4,6,10,12,14(22)-hexaene-2,8,8-trione], the “Ent. A Max Activity (%)” value is “+++ (+++ is >600%)” and the pEC50 is more than 6.00.
Taken in the same sequence, the figures for `Cc1cccc(C)c1-c1cc2nc(n1)NS(=O)(=O)c1cccc(c1)C(=O)N1C[C@H](CC(C)C)NC[C@H](C1)O2` [Compound 108, (16R,19S)-12-(2,6-Dimethylphenyl)-19-(2-methylpropyl)-15-oxa-8λ^6-thia-1,9,11,18,22-pentaazatetracyclo[14.4.1.13,7.110,14]tricosa-3(23),4,6,10(22),11,13-hexaene-2,8,8-trione] were “+++ (+++ is >600%)” and more than 6.00.
Consider `Cc1cccc(C)c1-c1cc2nc(n1)NS(=O)(=O)c1cccc(c1)C(=O)N1C[C@@H](CN(C3CCC(F)(F)CC3)[C@@H](CC(C)C)C1)O2` [Compound 110, (16R,19S)-18-(4,4-Difluorocyclohexyl)-12-(2,6-dimethylphenyl)-19-(2-methylpropyl)-15-oxa-8λ^6-thia-1,9,11,18,22-pentaazatetracyclo[14.4.1.13,7.110,14]tricosa-3(23),4,6,10(22),11,13-hexaene-2,8,8-trione], for which the “Ent. A Max Activity (%)” value is on record as “+++ (+++ is >600%)” and the pEC50 was more than 6.00.
In the same order, the values of `Cc1cccc(C)c1-c1cc2nc(n1)NS(=O)(=O)c1cccc(c1)C(=O)N1CCN(C(=O)OC(C)(C)C)[C@@H](CC(C)C)[C@H](C1)O2` [Compound 117, tert-Butyl (16S,17S)-12-(2,6-dimethylphenyl)-17-(2-methylpropyl)-2,8,8-trioxo-15-oxa-8λ^6-thia-1,9,11,18,22-pentaazatetracyclo[14.4.1.13,7.110,14]tricosa-3(23),4,6,10(22),11,13-hexaene-18-carboxylate] are “+++ (+++ is >600%)” and more than 6.00.
As to `Cc1cccc(C)c1-c1cc2nc(n1)NS(=O)(=O)c1cccc(c1)C(=O)N1C[C@@H](CNC[C@H]1C(C)C)O2` [Compound 123, (16R,20R)-12-(2,6-Dimethylphenyl)-20-(propan-2-yl)-15-oxa-8λ^6-thia-1,9,11,18,22-pentaazatetracyclo[14.4.1.13,7.110,14]tricosa-3(23),4,6,10(22),11,13-hexaene-2,8,8-trione], the “Ent. A Max Activity (%)” value was “++ (++ is 30-60%)” and the pEC50 was 5.52 to 6.00.
For `Cc1cccc(C)c1-c1cc2nc(n1)NS(=O)(=O)c1cccc(c1)C(=O)N1C[C@@H](CN(C)C[C@H]1C(C)C)O2` [Compound 125, (16R,20R)-12-(2,6-Dimethylphenyl)-18-methyl-20-(propan-2-yl)-15-oxa-8λ^6-thia-1,9,11,18,22-pentaazatetracyclo[14.4.1.13,7.110,14]tricosa-3(23),4,6,10(22),11,13-hexaene-2,8,8-trione], the “Ent. A Max Activity (%)” value was “+++ (+++ is >600%)” and the negative-log EC50 (pEC50) is more than 6.00.
On to `Cc1cccc(C)c1-c1cc2nc(n1)NS(=O)(=O)c1cccc(c1)C(=O)N1C[C@@H](CN(C3CCC(F)(F)CC3)C[C@H]1C(C)C)O2` [Compound 126, (16R,20R)-18-(4,4-Difluorocyclohexyl)-12-(2,6-dimethylphenyl)-20-(propan-2-yl)-15-oxa-8λ^6-thia-1,9,11,18,22-pentaazatetracyclo[14.4.1.13,7.110,14]tricosa-3(23),4,6,10(22),11,13-hexaene-2,8,8-trione], for which the “Ent. A Max Activity (%)” value was “+++ (+++ is >600%)” and the pEC50 is more than 6.00.
In the same order, the values of `Cc1cccc(C)c1-c1cc2nc(n1)NS(=O)(=O)c1cccc(c1)C(=O)N1C[C@@H](CN(C3CC4(CCCC4)C3)C[C@H]1C(C)C)O2` [Compound 127, (16R,20R)-12-(2,6-dimethylphenyl)-20-(propan-2-yl)-18-{spiro[3.4]octan-2-yl}-15-oxa-8λ^6-thia-1,9,11,18,22-pentaazatetracyclo[14.4.1.13,7.110,14]tricosa-3(23),4,6,10(22),11,13-hexaene-2,8,8-trione] are “++ (++ is 30-60%)” and more than 6.00.
Taken in the same sequence, the figures for `Cc1cccc(C)c1-c1cc2nc(n1)NS(=O)(=O)c1cccc(c1)C(=O)N1C[C@@H](CN(C3CC4(CCCCC4)C3)C[C@H]1C(C)C)O2` [Compound 128, (16R,20R)-12-(2,6-dimethylphenyl)-20-(propan-2-yl)-18-{spiro[3.5]nonan-2-yl}-15-oxa-8λ^6-thia-1,9,11,18,22-pentaazatetracyclo[14.4.1.13,7.110,14]tricosa-3(23),4,6,10(22),11,13-hexaene-2,8,8-trione] were “++ (++ is 30-60%)” and more than 6.00.
`Cc1cccc(C)c1-c1cc2nc(n1)NS(=O)(=O)c1cccc(c1)C(=O)N1C[C@@H](CNC[C@@H]1CCC(C)C)O2` [Compound 130, (16R,20S)-12-(2,6-Dimethylphenyl)-20-(3-methylbutyl)-15-oxa-8λ^6-thia-1,9,11,18,22-pentaazatetracyclo[14.4.1.13,7.110,14]tricosa-3(23),4,6,10(22),11,13-hexaene-2,8,8-trione]: the “Ent. A Max Activity (%)” value was “+++ (+++ is >600%)” and the pEC50 is more than 6.00.
Take `Cc1cccc(C)c1-c1cc2nc(n1)NS(=O)(=O)c1cccc(c1)C(=O)N1C[C@@H](CN(C)C[C@@H]1CCC(C)C)O2` [Compound 131, (16R,20S)-12-(2,6-Dimethylphenyl)-18-methyl-20-(3-methylbutyl)-15-oxa-8λ^6-thia-1,9,11,18,22-pentaazatetracyclo[14.4.1.13,7.110,14]tricosa-3(23),4,6,10(22),11,13-hexaene-2,8,8-trione]: the “Ent. A Max Activity (%)” value was “++ (++ is 30-60%)” and the pEC50 is more than 6.00.
Regarding `Cc1cccc(C)c1-c1cc2nc(n1)NS(=O)(=O)c1cccc(c1)C(=O)N1C[C@@H](CNC[C@@H]1C(C)C)O2` [Compound 133, (16R,20S)-12-(2,6-Dimethylphenyl)-20-(propan-2-yl)-15-oxa-8λ^6-thia-1,9,11,18,22-pentaazatetracyclo[14.4.1.13,7.110,14]tricosa-3(23),4,6,10(22),11,13-hexaene-2,8,8-trione], the “Ent. A Max Activity (%)” value is “+++ (+++ is >600%)” and the pEC50 was more than 6.00.
For the compound `Cc1cccc(C)c1-c1cc2nc(n1)NS(=O)(=O)c1cccc(c1)C(=O)N1C[C@@H](CNC[C@@H]1CC(C)(C)C)O2` [Compound 135, (16R,20S)-12-(2,6-Dimethylphenyl)-20-(2,2-dimethylpropyl)-15-oxa-8λ^6-thia-1,9,11,18,22-pentaazatetracyclo[14.4.1.13,7.110,14]tricosa-3(23),4,6,10(22),11,13-hexaene-2,8,8-trione], the “Ent. A Max Activity (%)” value is on record as “++ (++ is 30-60%)” and the negative-log EC50 (pEC50) is more than 6.00.
